The values that follow come from patent US20060058329A1, “Pyrazole inhibitors of the transforming growth factor” (priority 2003, published 2006).

For data set [1], the system named is TGF-β signalling (PAI-1 promoter-luciferase in HepG2 cells). Briefly: Cellular transcriptional assay (PAI-1 promoter luciferase reporter, TGF-β stimulated). The following applies: for IC50: Homo sapiens, HepG2, read-out: TGF-β cellular activity (IC50). (Reporter assays use an easily measured gene product as a stand-in for the process of interest.)
Experimental: Assay 1 (Cellular Transcriptional Assay)
The assay was performed in HepG2 cells stably transfected with the PAI-1 promoter (known to be a strong TGF-β responsive promoter) linked to a luciferase (firefly) reporter gene. The compounds were selected on their ability to inhibit luciferase activity in cells exposed to TGF-β. In addition, cells were transfected with a second luciferase (Renilla) gene which was not driven by a TGF-β responsive promoter and was used as a toxicity control.
96 well microplates were seeded, using a multidrop apparatus, with the stably transfected cell line at a concentration of 35000 cells per well in 200 μl of serum-containing medium. These plates were placed in a cell incubator.
18 to 24 hours later (Day 2), cell-incubation procedure was launched. Cells were incubated with TGF-β and a candidate compound at concentrations in the range 50 nM to 10 μM (final concentration of DMSO 1%). The final concentration of TGF-β (rhTGFβ-1) used in the test was 1 ng/mL. […] The final volume of the test reaction was 150 μl. Each well contained only one candidate compound and its effect on the PAI-1 promoter was monitored.
Columns 11 and 12 were employed as controls. Column 11 contained 8 wells in which the cells were incubated in the presence of TGF-β, without a candidate compound. Column 11 was used to determine the ‘reference TGF-β induced firefly luciferase value’ against which values measured in the test wells (to quantify inhibitory activity) were compared. In wells A12 to D12, cells were grown in medium without TGF-β. […]
12 to 18 hours later (day 3), the luciferase quantification procedure was launched. […] Following agitation (15 to 30 mins), luciferase activities of the plates were read in a dual-injector luminometer (BMG lumistar). For this purpose, 50 μl of luciferase assay reagent and 50 μL of ‘Stop & Glo’ buffer were injected sequentially to quantify the activities of both luciferases. […] For each of the compounds tested, a concentration response curve was constructed from which an IC50 value was determined graphically.
Data set [2] concerns the target T1, recombinant GST-ALK5 (residues 198-503) (Homo sapiens, UniProt P36897).
T1 construct: recombinant GST-ALK5 (residues 198-503)
T1 sequence (P36897 198-503): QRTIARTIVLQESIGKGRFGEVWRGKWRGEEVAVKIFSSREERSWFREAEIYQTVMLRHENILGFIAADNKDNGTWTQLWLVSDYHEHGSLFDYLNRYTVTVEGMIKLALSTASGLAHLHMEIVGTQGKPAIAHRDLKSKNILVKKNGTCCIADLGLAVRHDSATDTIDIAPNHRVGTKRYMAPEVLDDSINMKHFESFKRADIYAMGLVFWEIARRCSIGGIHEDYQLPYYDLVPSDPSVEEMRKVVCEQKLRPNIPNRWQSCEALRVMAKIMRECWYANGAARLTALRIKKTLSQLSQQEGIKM
Nature of the data set: Alk5 fluorescence polarization assay. The following applies: rhodamine green-labelled ligand 1 nM, ALK5 10 nM, read-out: ALK5 receptor modulator activity (IC50). Type of data set: binding. How it is done:
Assay 2 (Alk5 Fluorescence Polarization Assay)
Kinase inhibitor compounds conjugated to fluorophores, can be used as fluorescent ligands to monitor ATP competitive binding of other compounds to a given kinase. The increase in depolarization of plane polarized light, caused by release of the bound ligand into solution, is measured as a polarization/anisotropy value. This protocol details the use of a rhodamine green-labelled ligand for assays using recombinant GST-ALK5 (residues 198-503).
Assay buffer components: 62.5 mM Hepes pH 7.5 (Sigma H-4034), 1 mM DTT (Sigma D-0632), 12.5 mM MgCl2 (Sigma M-9272), 1.25 mM CHAPS (Sigma C-3023). […]
ALK5 was added to assay buffer containing the above components and 1 nM of the rhodamine green-labelled ligand so that the final ALK5 concentration was 10 nM based on active site titration of the enzyme. […] The plates were read immediately on a LJL Acquest fluorescence reader (Molecular Devices, serial number AQ1048) with excitation, emission, and dichroic filters of 485 nm, 530 nm, and 505 nm, respectively. The fluorescence polarization for each well was calculated by the Acquest reader and then imported into curve fitting software for construction of concentration response curves. The normalized response was determined relative to the high controls (1 μl DMSO in column 12, rows A-D) and the low controls (1 μl of control compound in column 12, rows E-H). […]
Background: In fluorescence polarisation assays a small probe gives low polarisation when free and higher when bound to something large.

Broadly, the IC50 is the point on the concentration scale where inhibition reaches its midpoint. What is called melting point is the temperature of the solid-liquid transition.

On to `Cc1cccc(-c2cn[nH]c2-c2ccnc(-c3ccc(OCCN4CCCC4)cc3)c2)n1` [Example 22, 3-[2-(4-(2-(pyrolidin-1-yl)ethoxy)phenyl)pyridin-4-yl]-4-[6-methylpyridin-2-yl]-1H-pyrazole], for which the melting point was 96 °C. Besides, the IC50 in data set [1] came to 38 nM. Also, the IC50 in data set [2] was 17 nM.

Take `O=C1C=CCC1` [CPO, Cyclopentenone, reference compound]: in data set [1] (500 μM CPO in the presence of TGF-β, toxicity control), the “firefly and renilla luciferase activities, relative to those obtained in column 11 (TGF-β only)” value is given as “around 50%”.

`Cc1cccc(-c2cn[nH]c2-c2ccnc(-c3ccc(OCC(=O)N4CCOCC4)cc3)c2)n1` [Example 23, 3-[2-(4-((morpholin-4-yl)carbonylmethyloxy)phenyl)pyridin-4-yl]-4-[6-methylpyridin-2-yl]-1H-pyrazole] returned a melting point of 170 °C.

Consider `Cc1cccc(-c2n[nH]cc2-c2ccnc(-c3ccc(OCc4cn(C)cn4)cc3)c2)n1` [Example 1, 2-{4-[(1-methyl-1H-imidazol-4-yl)methoxy]phenyl}-4-[3-(6-methylpyridin-2-yl)-1H-pyrazol-4-yl]pyridine], for which the IC50 in data set [1] came to 34 nM; in data set [2], 5 nM.

For the compound `CCN1CCN(C(=O)c2ccc(-c3cc(-c4[nH]ncc4-c4cccc(C)n4)ccn3)cc2)CC1` [Example 19, 3-[2-(4-((1-ethyl-piperazin-4-yl)carbonyl)phenyl)pyridin-4-yl]-4-[6-methylpyridin-2-yl]-1H-pyrazole], the melting point was found to be 126 °C.
